Results taken from patent US10968214B2, “KRas G12C inhibitors” (Eli Lilly and Company, priority 2018, dated 2021).
Read-outs that look alike come from different tables or passages of the source.

Columns and labels:
[1] = tested on: pERK in H358 xenograft tumors; experiment: In vivo target inhibition/PD, H358 xenograft, pERK; parameters: species or system mouse; conditions: for inhibition at 10 mg/kg: 10 mg/kg single dose; for inhibition at 30 mg/kg: 30 mg/kg single dose
Protocol: (§1) To evaluate in vivo target inhibition and anti-tumor efficacy of a compound, Human lung cancer cells, H358 or H2122 are implanted into nude mice xenograft tumor models. Either H358 or H2122 cells (10×10^6 in a 1:1 Matrigel® mix, 0.2 mL total volume) are implanted by subcutaneous injection in hind leg of nude female mice (Harlan Laboratories). A total of 5 mice each group are used for efficacy study, and a total of 3-4 mice each group are used for target engagement and PD study. Treatment is initiated with oral administration (gavage) of a test compound or vehicle (20% Captisol®, 25 mM phosphate, pH 2.0 in 0.2 mL volume when the tumor size reaches approximately […]. Tumor growth and body weight are monitored over time to evaluate efficacy and signs of toxicity. Bidimensional measurements of tumors are performed twice a week and tumor volumes are calculated based on mid-axis length and mid-axis width. Tumor volume data are transformed to a log scale to equalize variance across time and treatment groups. The log volume data are analyzed with a two-way repeated measures analysis of variance by time and treatment using the mixed procedures in SAS software (version 8.2). The correlation model for the repeated measures is spatial power. Treated groups are compared to the control group at each time point. The mixed procedure is also used separately for each treatment group to calculate adjusted means and standard errors at each time point. Both analyses account for the autocorrelation within each animal. The adjusted means and standard errors are plotted for each treatment group versus time.
(§2) For in vivo target inhibition and PD analysis, tumors are ground by mortar and pestle on dry ice and tumor fragments are added to 800 μL of lysis buffer containing 1% Triton X100, 25 mM Tris pH 7.5, 150 mM NaCl, 1 mM EDTA, and 1 mM EGTA with Halt protease and phosphatase inhibitor cocktail (Thermo Scientific, cat. no. 1861281) in lysing matrix D tubes (MP Biomedical®, cat. no. 6913-500) with one additional large bead (MP Biomedical® ¼″ ceramic sphere bead cat. no. 6540-412) per tube. Tumor fragments are homogenized in a Thermo Bio101® fast prep (FP120) at setting 4 for […] while cold for a total of 2 times. Lysates are spun at 14,000 rpm for 10 min at 4° C. to clarify. Protein estimation is done on the lysate supernatant using a BioRad Dc® protein assay and lysates are diluted in complete lysis/binding buffer from the Ras GTPase Chemi ELISA Kit® (Active Motif, cat. no. 52097). The active KRas ELISA was performed as follows: Glutathione-coated ELISA wells were incubated with diluted RAF1-GST in complete lysis/binding buffer for 1 hr at 4° C. with gentle agitation. Wells are washed 3 times with wash buffer and 100 μg of lysates are added to each well and incubated at RT for 1 hr with mild agitation. The wells are washed an additional 3 times, then primary antibody, diluted in antibody binding buffer, is added to each well. The plates are incubated for 1 hr. The wells are washed 3 more times before adding HRP-conjugated secondary antibody, diluted in antibody binding buffer, to each well. The plates are incubated at RT for 1 hr. ELISA wells are washed 4 times, chemiluminescent reagents is added and then luminescence is read. For pERK Meso Scale Discovery ELISA, 25 μg of protein containing 0.1% SDS is used; for pMEK Meso Scale Discovery ELISA, 50 μg of protein without SDS is used. Meso Scale Discovery Whole Cell Lysate Kits for pERK and pMEK are provided by Meso Scale Discovery.
The tumor samples are collected 4 hr post a single dose. The tumor lysates are prepared and the inhibition of pERK, pMEK, and active KRas is measured as described above.
After a single dose, the tumor samples are harvested at 2, 4, 8, 12 and 24 hr post doing. The tumor lysates are prepared and the inhibition of pERK, pMEK, and active KRas is measured as described above.

KRas G12C = KRas G12C (Homo sapiens, UniProt P01116, G12C); experiment: KRas G12C Probe Occupancy TR-FRET Assay; format: binding; conditions: read-out: IC50
Protocol: Inhibitors are tested in dose response format from 10 mM stocks in 100% DMSO. The Labycyte Echo® 555 is used to dilute and transfer 100 nL per well containing a 10 point, 2.8-fold serial dilution to an assay plate. […] The signal ratio (em at 665/em at 615) is converted to percent inhibition using the following equation: % Inhibition=100−[(Test Compound Signal−Median Minimum Signal)/(Median Maximum Signal−Median Minimum Signal)×100].

[2] = tested on: pMEK in H2122 xenograft tumors; experiment: In vivo target inhibition/PD, H2122 xenograft, pMEK; conditions: Mus musculus, NCI-H2122; for inhibition at 10 mg/kg: 10 mg/kg single dose
Protocol: as §1, §2
(§3) After a single dose, the tumor samples are harvested at different time points. The tumor lysates are prepared as described above. The inhibition of pERK, pMEK, and active KRas is measured as described above.

[3] = tested on: pERK in H2122 xenograft tumors; experiment: In vivo target inhibition/PD, H2122 xenograft, pERK; conditions: Mus musculus, NCI-H2122; for inhibition at 10 mg/kg: 10 mg/kg single dose
Protocol: as §1, §2, §3

MiaPaca-2 xenograft = experiment: Anti-tumor growth activity, MiaPaca-2 pancreatic xenograft; format: in vivo; conditions: for Tumor Growth Inhibition (%) or Regression (−%): 28 Day, negative = regression
[4] = Mus musculus, NCI-H358, 2 h, H358 xenograft, time course, 2 hr, read-out: % Inhibition pERK
[5] = Mus musculus, NCI-H358, 4 h, H358 xenograft, time course, 4 hr, read-out: % Inhibition pERK
[6] = Mus musculus, NCI-H358, 4 h, H358 xenograft, 4 hr post dose, read-out: % Inhibition pERK
[7] = Mus musculus, NCI-H358, 8 h, H358 xenograft, time course, 8 hr, read-out: % Inhibition pERK
[8] = Mus musculus, NCI-H358, 12 h, H358 xenograft, time course, 12 hr, read-out: % Inhibition pERK
[9] = Mus musculus, NCI-H358, 24 h, H358 xenograft, time course, 24 hr, read-out: % Inhibition pERK
[10] = H2122 xenograft, 100 mg/kg single dose, 4 hr

KRas G12C, sequence (P01116 1-188 isoform P01116-2 G12C): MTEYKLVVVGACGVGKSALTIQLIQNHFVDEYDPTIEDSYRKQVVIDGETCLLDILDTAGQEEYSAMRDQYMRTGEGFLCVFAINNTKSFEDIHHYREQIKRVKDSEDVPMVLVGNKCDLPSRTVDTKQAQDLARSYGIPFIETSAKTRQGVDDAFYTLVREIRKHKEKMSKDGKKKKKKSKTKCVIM

- EC50 ([1]; Mus musculus, NCI-H358, H358 xenograft, plasma exposure by mass spectrum, read-out: plasma concentration to achieve 50% target inhibition (TEC50), pERK): 474 nM
- IC50 (KRas G12C; 5 min incubation): 25 nM
- IC50 (KRas G12C; 60 min incubation): 24 nM
SMILES: C=CC(=O)N1CCN(c2ncnc3c(F)c(-c4ccc(F)c5sc(N)nc45)c(Cl)cc23)CC1 [Example 1, 1-{4-[7-(2-Amino-7-fluoro-1,3-benzothiazol-4-yl)-6-chloro-8-fluoroquinazolin-4-yl]piperazin-1-yl}prop-2-en-1-one]
- dose to achieve 50% target inhibition (TED50), pERK ([1]; H358 xenograft, single dose, 4 hr): 9.78 mg/kg
- inhibition at 10 mg/kg [1, 4]: 61.7%
- inhibition at 30 mg/kg [1, 4]: 83.1%
- inhibition at 10 mg/kg [1, 5]: 73.5%
- inhibition at 30 mg/kg [1, 5]: 87.3%
- inhibition at 1 mg/kg ([1]; Mus musculus, NCI-H358, 4 h, H358 xenograft, 1 mg/kg single dose, 4 hr post dose): 5.5%
- inhibition at 3 mg/kg ([1]; Mus musculus, NCI-H358, 4 h, H358 xenograft, 3 mg/kg single dose, 4 hr post dose): 16.4%
- inhibition at 10 mg/kg [1, 6]: 47.8%
- inhibition at 30 mg/kg [1, 6]: 84.2%
- inhibition at 100 mg/kg ([1]; Mus musculus, NCI-H358, 4 h, H358 xenograft, 100 mg/kg single dose, 4 hr post dose): 83.5%
- inhibition at 10 mg/kg [1, 7]: 69.2%
- inhibition at 30 mg/kg [1, 7]: 86.5%
- inhibition at 10 mg/kg [1, 8]: 83%
- inhibition at 30 mg/kg [1, 8]: 77.4%
- inhibition at 10 mg/kg [1, 9]: 45%
- inhibition at 30 mg/kg [1, 9]: 63.4%
- inhibition at 10 mg/kg ([1]; Mus musculus, NCI-H358, H358 xenograft, from 2-12 hr, read-out: pERK inhibition): 61 to 83%
- inhibition at 30 mg/kg ([1]; Mus musculus, NCI-H358, H358 xenograft, from 2-24 hr, read-out: pERK inhibition): 63 to 87%
- inhibition at 10 mg/kg ([2]; H2122 xenograft, 2 hr, read-out: % Inhibition pMEK): 45.9%
- inhibition at 10 mg/kg ([2]; H2122 xenograft, 4 hr, read-out: % Inhibition pMEK): 60.4%
- inhibition at 10 mg/kg ([2]; H2122 xenograft, 8 hr, read-out: % Inhibition pMEK): 25.7%
- inhibition at 10 mg/kg ([2]; H2122 xenograft, 12 hr, read-out: % Inhibition pMEK): -0.4%
- inhibition at 10 mg/kg ([2]; H2122 xenograft, 24 hr, read-out: % Inhibition pMEK): -8.4%
- inhibition at 10 mg/kg ([2]; H2122 xenograft, from 2-12 hr, read-out: pMEK inhibition): 0 to 60%
- inhibition at 30 mg/kg ([2]; H2122 xenograft, 30 mg/kg single dose, 2 hr, read-out: % Inhibition pMEK): 62.4%
- inhibition at 30 mg/kg ([2]; H2122 xenograft, 30 mg/kg single dose, 4 hr, read-out: % Inhibition pMEK): 77.5%
- inhibition at 30 mg/kg ([2]; H2122 xenograft, 30 mg/kg single dose, 8 hr, read-out: % Inhibition pMEK): 72.2%
- inhibition at 30 mg/kg ([2]; H2122 xenograft, 30 mg/kg single dose, 12 hr, read-out: % Inhibition pMEK): 44.7%
- inhibition at 30 mg/kg ([2]; H2122 xenograft, 30 mg/kg single dose, 24 hr, read-out: % Inhibition pMEK): -15.5%
- inhibition at 100 mg/kg [2, 10]: 79.7%
- inhibition at 30 mg/kg ([2]; read-out: pMEK inhibition): 45 to 78%
- inhibition at 10 mg/kg ([3]; H2122 xenograft, 2 hr, read-out: % Inhibition pERK): 46.8%
- inhibition at 10 mg/kg ([3]; H2122 xenograft, 4 hr, read-out: % Inhibition pERK): 47%
- inhibition at 10 mg/kg ([3]; H2122 xenograft, 8 hr, read-out: % Inhibition pERK): 34.5%
- inhibition at 10 mg/kg ([3]; H2122 xenograft, 12 hr, read-out: % Inhibition pERK): 7.2%
- inhibition at 10 mg/kg ([3]; H2122 xenograft, 24 hr, read-out: % Inhibition pERK): -2.8%
- inhibition at 10 mg/kg ([3]; H2122 xenograft, from 2-12 hr, read-out: pERK inhibition): 7 to 47%
- inhibition at 30 mg/kg ([3]; H2122 xenograft, 30 mg/kg single dose, 2 hr, read-out: % Inhibition pERK): 75.6%
- inhibition at 30 mg/kg ([3]; H2122 xenograft, 30 mg/kg single dose, 4 hr, read-out: % Inhibition pERK): 75.3%
- inhibition at 30 mg/kg ([3]; H2122 xenograft, 30 mg/kg single dose, 8 hr, read-out: % Inhibition pERK): 67.4%
- inhibition at 30 mg/kg ([3]; H2122 xenograft, 30 mg/kg single dose, 12 hr, read-out: % Inhibition pERK): 48.8%
- inhibition at 30 mg/kg ([3]; H2122 xenograft, 30 mg/kg single dose, 24 hr, read-out: % Inhibition pERK): 20.4%
- inhibition at 100 mg/kg [3, 10]: 79.1%
- inhibition at 30 mg/kg ([3]; read-out: pERK inhibition): 49 to 76%
- Tumor Growth Inhibition (%) or Regression (−%) (MiaPaca-2 xenograft; 10 mg/kg BID): 75.48%
- Tumor Growth Inhibition (%) or Regression (−%) (MiaPaca-2 xenograft; 10 mg/kg QD): 44.4%
- Tumor Growth Inhibition (%) or Regression (−%) (MiaPaca-2 xenograft; 30 mg/kg BID): −49.6%
- Tumor Growth Inhibition (%) or Regression (−%) (MiaPaca-2 xenograft; 30 mg/kg QD): 95.6%
- In Vivo Anti-Tumor Activities (MiaPaca-2 xenograft; Example 1 30 mg/kg QDx28): 91.22
